# Values quoted from earlier work in patent US20030069214A1, “Process for preparing saponin compounds” (priority 2001, published 2003).
# Tests used:
# [1] = tested on: broad spectrum of malignant tumor cells; conditions: Bioorg. Med. Chem. Lett., 7, 633, 1997
# [2] = tested on: normal cells; conditions: normal cells in vitro; Bioorg. Med. Chem. Lett., 7, 633, 1997
smiles,measurement,setting,value
COc1ccc(C(=O)O[C@H]2[C@H](O[C@@H]3[C@@H](OC(C)=O)[C@H](O[C@H]4C[C@H]5[C@@H]6CC=C7C[C@@H](O)CC[C@]7(C)[C@H]6CC[C@]5(C)[C@@]4(O)[C@H](C)C(=O)CCC(C)C)OC[C@@H]3O)OC[C@@H](O)[C@@H]2O)cc1 [OSW-1],toxicity against malignant tumor cells,[1],highly toxic
same,toxicity to normal cells,[2],little toxicity
